Reference: patent US4450269A, “Mono-5-substituted-3-chloro-4H-1,2,6-thiadiazin-4-one antifungal agents” (FMC Corporation, priority 1980, dated 1984)

Assays:
Cladosporium cucumerinum = experiment: Spore germination test; type: cell-based; conditions: CC, 48 hours
Outline: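 Compound in acetone mixed into water agar at 40, 10, 2.5 and 1 ppm; plates seeded with spore suspension and incubated 48 hours at 24 °C. Percentage germinated spores counted and converted into a germination rating.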

Rhizoctonia solani = experiment: Mycelial growth test; type: cell-based; conditions: RS; for inhibition at 5 ppm / inhibition at 10 ppm / inhibition at 20 ppm / inhibition at 40 ppm: Rhizoctonia solani, 72 h, read-out: Percent Fungus Growth Inhibition
Text: | RS = Rhizoctonia solani

Erysiphe polygoni = experiment: whole plant or invertebrate; conditions: foliar, 24 h, read-out: Percent Disease Control, curative, bean powdery mildew

SMILES	Spore Germination Rating (Cladosporium cucumerinum; 1.0 ppm)	Spore Germination Rating (Cladosporium cucumerinum; 2.5 ppm)	Spore Germination Rating (Cladosporium cucumerinum; 10 ppm)	Spore Germination Rating (Cladosporium cucumerinum; 40 ppm)	inhibition at 5 ppm (Rhizoctonia solani)	inhibition at 10 ppm (Rhizoctonia solani; 10 ppm)	inhibition at 20 ppm (Rhizoctonia solani)	inhibition at 40 ppm (Rhizoctonia solani)	pest or weed control at 150 ppm (Erysiphe polygoni)	Percent Fungus Growth Inhibition (Rhizoctonia solani; 10 ppm, 72 hours)
CC(=O)Nc1ccccc1Oc1nsnc(Cl)c1=O [Compound 43, 3-[(2-acetylamino)-phenoxy]-5-chloro-4H--1,2,6-thiadiazin-4-one]	4 (80-100)	4 (80-100)	2 (40-60)	0 (0-10)	0%	0%	11%	24%	0%	
COc1ccc(Oc2nsnc(Cl)c2=O)cc1 [Compound 5, 3-chloro-5-(4-methoxyphenoxy)4H--1,2,6-thiadiazin-4-one]	4 (80-100)	4 (80-100)	0 (0-10)	0 (0-10)	0%	0%	38%	64%	0%	
COc1cc(Cl)cc(Oc2nsnc(Cl)c2=O)c1 [Compound 52, 3-chloro-5-[(3-chloro-5-methoxy)phenoxy]-4H--1,2,6-thiadiazin-4-one]	4 (80-100)	0 (0-10)	0 (0-10)	0 (0-10)	33%	64%	64%	100%	75%	
O=c1c(Cl)nsnc1Oc1cccc(Cl)c1 [Compound 13, 3-chloro-5-(3-chlorophenoxy)-4H--1,2,6-thiadiazin-4-one]	2 (40-60)	0 (0-10)	0 (0-10)	0 (0-10)	24%	53%	69%	76%	100%	
Cc1cccc(C)c1Oc1nsnc(Cl)c1=O [Compound 24, 3-chloro-5-(2,6-dimethylphenoxy)-4H--1,2,6-thiadiazin-4-one]	0 (0-10)	0 (0-10)	0 (0-10)	0 (0-10)	20%	64%	82%	100%	100%	
O=c1c(Cl)nsnc1Oc1ccccc1 [Compound 2, 3-chloro-5-phenoxy-4H--1,2,6-thiadiazin-4-one]	4 (80-100)	4 (80-100)	0 (0-10)	0 (0-10)	0%	42%	100%	78%	100%	
Cc1ccc(Cl)c(Oc2nsnc(Cl)c2=O)c1 [Compound 56, 3-chloro-5-[(2-chloro-5-methyl)phenoxy]-4H--1,2,6-thiadiazin-4-one]	4 (80-100)	0 (0-10)	0 (0-10)	0 (0-10)	33%	78%	100%	100%	0%	
Cc1cc(C)cc(Oc2nsnc(Cl)c2=O)c1 [Compound 25, 3-chloro-5-(3,5-dimethylphenoxy)-4H--1,2,6-thiadiazin-4-one]	0 (0-10)	0 (0-10)	0 (0-10)	0 (0-10)	20%	64%	80%	78%	100%	
Nc1ccc(Oc2nsnc(Cl)c2=O)cc1 [Compound 26, 5-(4-aminophenoxy)-3-chloro-4H--1,2,6-thiadiazin-4-one]	1 (10-40)	0 (0-10)	0 (0-10)	0 (0-10)	0%		42%	76%	0%	53%
O=c1c(Cl)nsnc1Oc1cccc2ccccc12 [Compound 32, 3-chloro-5(1-naphthoxy)-4H-1,2,6-thiadiazin-4-one]	0 (0-10)	0 (0-10)	0 (0-10)	0 (0-10)	76%	42%	69%	73%	90%	
O=C(Nc1ccccc1)Nc1ccc(Oc2nsnc(Cl)c2=O)cc1 [Compound 29, 3-chloro-5-[4-(3-phenylureido)-phenoxy]-4H--1,2,6-thiadiazin-4-one]	2 (40-60)	2 (40-60)	2 (40-60)	1 (10-40)	0%	31%	0%	29%	0%	
O=c1c(Cl)nsnc1Oc1ccccc1Br [Compound 34, 3-chloro-5-(2-bromophenoxy)-4H-1,2,6,-thiadiazin-4-one]	1 (10-40)	0 (0-10)	0 (0-10)	0 (0-10)	24%	64%	76%	100%	95%	
O=c1c(Cl)nsnc1Oc1ccc(Br)cc1 [Compound 15, 3-chloro-5-(4-bromophenoxy)-4H--1,2,6-thiadiazin-4-one]	0 (0-10)	0 (0-10)	0 (0-10)	0 (0-10)	13%	38%	38%	53%	100%	
O=c1c(Cl)nsnc1Oc1c(Cl)c(Cl)c(Cl)c(Cl)c1Cl [Compound 31, 3-chloro-5-(pentachlorophenoxy)-4H--1,2,6-thiadiazine-4-one]	0 (0-10)	0 (0-10)	0 (0-10)	0 (0-10)	53%	69%	73%	76%	100%	
Cc1ccc(Oc2nsnc(Cl)c2=O)c(C)c1 [Compound 23, 3-chloro-5-(2,4-dimethylphenoxy)-4H--1,2,6-thiadiazin-4-one]	4 (80-100)	1 (10-40)	0 (0-10)	0 (0-10)	20%	53%	73%	78%	0%	
COc1cc(Oc2nsnc(Cl)c2=O)cc(OC)c1C(C)=O [Compound 61, 3-[(4-acetyl-3,5-dimethoxy)-phenoxy]-5-chloro-4H--1,2,6-thiadiazin-4-one]	4 (80-100)	0 (0-10)	0 (0-10)	0 (0-10)	0%	13%	33%	47%	0%	
Cc1ccc(Oc2nsnc(Cl)c2=O)c(Br)c1 [Compound 57, 3-[(2-bromo-4-methyl)-phenoxy]-5-chloro-4H--1,2,6-thiadiazin-4-one]	3 (60-80)	0 (0-10)	0 (0-10)	0 (0-10)	53%	69%	80%	78%	100%	
CC(=O)Nc1ccc(Oc2nsnc(Cl)c2=O)cc1 [Compound 8, 5-(4-acetylaminophenoxy)-3-chloro-4H--1,2,6-thiadiazin-4-one]	4 (80-100)	3 (60-80)	0 (0-10)	0 (0-10)	0%	0%	7%	42%	0%	
CSc1ccc(Oc2nsnc(Cl)c2=O)cc1 [Compound 39, 3-chloro-5-[(4-methylthio)phenoxy]-4H-1,2,6,-thiadiazin-4-one]	1 (10-40)	0 (0-10)	0 (0-10)	0 (0-10)	24%	31%	31%	42%	0%	
O=C(O)c1ccc(Oc2nsnc(Cl)c2=O)cc1 [Compound 50, 3-(4-carboxyphenoxy)-5-chloro-4H--1,2,6-thiadiazin-4-one]	3 (60-80)	3 (60-80)	3 (60-80)	2 (40-60)	42%	0%	13%	47%	0%	
CNC(=O)Nc1ccc(Oc2nsnc(Cl)c2=O)cc1 [Compound 28, 3-chloro-5-[4-(3-methylureido)-phenoxy]-4H--1,2,6-thiadiazin-4-one]	2 (40-60)	2 (40-60)	1 (10-40)	0 (0-10)	20%	47%	24%	47%	50%	
CC(=O)Nc1cccc(Oc2nsnc(Cl)c2=O)c1 [Compound 42, 3-[(3-N--acetylamino)-phenoxy]-5-chloro-4H--1,2,6-thiadiazin-4-one]	4 (80-100)	4 (80-100)	3 (60-80)	0 (0-10)	0%	4%	31%	67%	0%	
O=c1c(Cl)nsnc1Oc1c(Cl)cccc1Cl [Compound 18, 3-chloro-5-(2,6-dichlorophenoxy)-4H--1,2,6-thiadiazin-4-one]	4 (80-100)	0 (0-10)	0 (0-10)	0 (0-10)	42%	56%	76%	87%	100%	
